Measured values as given in patent US20230140983A1, “PYRIDAZINE DERIVATIVES FOR MODULATING NUCLEIC ACID SPLICING” (REMIX THERAPEUTICS INC., priority 2020, published 2023).
Where two headings read alike, the source gives them in different places.

Experiments:
Type in all cases: cell-based
HTT [1] = assay: Splicing assay (RT-qPCR on cell lysates) monitoring HTT splice variants: AJ and CJ mRNA; conditions: concentration having 50% response
Description: Example 69: Exemplary Splicing Assay for Monitoring Expression Levels of Splice Variants
(§1) To set up 10 uL RT-qPCR reactions, cell lysates were transferred to 384-well qPCR plates containing the master mix according to the table below. The plates were sealed, gently vortexed, and spun down before the run. The volumes were adjusted accordingly in some instances where the reaction was carried in 20 uL. The table below summarizes the components of the RT-qPCR reactions:
(§2) The RT-qPCR reaction was performed using a QuantStudio (ThermoFisher) under the following fast cycling conditions. All samples and standards were analyzed at least in duplicate. In some instances, bulk room temperature (RT) step of 5-10 minutes was completed for all plates before proceeding with qPCR. The table below summarizes the PCR cycle:
(§3) The data analysis was performed by first determining the ΔCt vs the housekeeper gene. This ΔCt was then normalized against the DMSO control (ΔΔCt) and converted to RQ (relative quantification) using the 2^(−ΔΔCt) equation. The RQ were then converted to a percentage response by arbitrarily setting an assay window of 3.5 ΔCt for HTT-CJ and an assay window of 9 ΔCt for HTT-AJ. […] The percentage response was then fitted to the 4 parametric logistic equation to evaluate the concentration dependence of compound treatment. The increase in AJ mRNA is reported as AC50 (compound concentration having 50% response in AJ increase) while the decrease in CJ mRNA levels is reported as IC50 (compound concentration having 50% response in CJ decrease).

HTT [2] = assay: Gene panel canonical junction qPCR assay, HTT CJ mRNA; conditions: Table 9, CJ mRNA decrease, read-out: HTT IC50 (decrease in CJ mRNA levels)
Description: as §1, §2, §3
(§4) Additional studies were carried out for a larger panel of genes using the protocol provided above. The junction between flanking upstream and downstream exons was used to design canonical junction qPCR assays. At least one of the forward primer, reverse primer or the CY5-labeled 5′ nuclease probe (with 3′ quencher such as ZEN/Iowa Black FQ) was designed to overlap with the exon junction to capture the CJ mRNA transcript. BLAST was used to confirm the specificity of the probeset and parameters such as melting temperature, GC content, amplicon size, and primer dimer formation are considered during their design. Data for the decrease in CJ mRNA levels for three exemplary genes (HTT, SMN2, and Target C) analyzed in this panel are reported as IC50 (compound concentration having 50% response in CJ decrease).

SMN2 = assay: Gene panel canonical junction qPCR assay, SMN2 CJ mRNA; conditions: Table 9, CJ mRNA decrease, read-out: SMN2 IC50 (decrease in CJ mRNA levels)
Description: as §1, §2, §3, §4

Target C = assay: Gene panel canonical junction qPCR assay, Target C CJ mRNA; conditions: Table 9, CJ mRNA decrease, read-out: Target C IC50 (decrease in CJ mRNA levels)
Description: as §1, §2, §3, §4

[3] = Table 7, decrease in CJ mRNA, read-out: HTT CJ AC50
[4] = Table 7, increase in AJ mRNA, read-out: HTT AJ AC50
[5] = Table 8, decrease in CJ mRNA, read-out: HTT CJ AC50
[6] = Table 8, increase in AJ mRNA, read-out: HTT AJ AC50

Row | Compound | AC50 (HTT [1]; [3]) | AC50 (HTT [1]; [4]) | AC50 (HTT [1]; [5]) | AC50 (HTT [1]; [6]) | IC50 (HTT [2]) | IC50 (SMN2) | IC50 (Target C)
1 | CN(c1ccc(-c2ccc(-n3cccn3)c3nc[nH]c23)nn1)[C@@H]1C[C@H]2CC[C@@H](C1)N2 [Compound 170] | 500 to 5000 nM | > 5000 nM | 1000 to 10000 nM | 1000 to 10000 nM | 1000 to 10000 nM | 100 to 1000 nM | > 10000 nM
2 | CN(c1ccc(-c2ccc(-c3ccn(C)c(=O)c3)c3scnc23)nn1)C1CC(C)(C)NC(C)(C)C1 [Compound 174] | – | – | 1000 to 10000 nM | 1000 to 10000 nM | 1000 to 10000 nM | 100 to 1000 nM | > 10000 nM
3 | CN(c1ccc(-c2ccc(-c3cnn(C)c3)c3scnc23)nn1)C1CC(C)(C)NC(C)(C)C1 [Compound 175, N-methyl-6-[7-(1-methylpyrazol-4-yl)-1,3-benzothiazol-4-yl]-N-(2,2,6,6-tetramethylpiperidin-4-yl)pyridazin-3-amine] | – | – | > 10000 nM | 1000 to 10000 nM | > 10000 nM | 1000 to 10000 nM | > 10000 nM
4 | Cc1[nH]ncc1-c1ccc(-c2ccc(N(C)C3CC(C)(C)NC(C)(C)C3)nn2)c2ncsc12 [Compound 176] | – | – | > 10000 nM | 1000 to 10000 nM | > 10000 nM | > 10000 nM | > 10000 nM
5 | COc1cc(-c2ccc(-c3ccc(N(C)C4CC(C)(C)NC(C)(C)C4)nn3)c3ncsc23)ccn1 [Compound 177] | – | – | > 10000 nM | > 10000 nM | > 10000 nM | 1000 to 10000 nM | > 10000 nM
6 | CN(c1ccc(-c2ccc(-c3ccc(=O)n(C)c3)c3scnc23)nn1)C1CC(C)(C)NC(C)(C)C1 [Compound 178] | – | – | > 10000 nM | > 10000 nM | > 10000 nM | > 10000 nM | > 10000 nM
7 | CN(c1ccc(-c2ccc(-c3cnc(=O)[nH]c3)c3scnc23)nn1)C1CC(C)(C)NC(C)(C)C1 [Compound 179] | – | – | 100 to 1000 nM | 100 to 1000 nM | 100 to 1000 nM | 100 to 1000 nM | 100 to 1000 nM
8 | CN(c1ccc(-c2ccc(-c3ccc(=O)[nH]c3)c3scnc23)nn1)C1CC(C)(C)NC(C)(C)C1 [Compound 180] | – | – | 100 to 1000 nM | 100 to 1000 nM | 100 to 1000 nM | 100 to 1000 nM | 100 to 1000 nM
9 | CC1(C)CC(Oc2ccc(-c3ccc(-c4cn[nH]c4)c4ncsc34)nn2)CC(C)(C)N1 [Compound 181] | > 5000 nM | > 5000 nM | > 10000 nM | > 10000 nM | > 10000 nM | < 100 nM | > 10000 nM
10 | CC1(C)CC(Oc2ccc(-c3ccc(-c4cn[nH]c4)c4ncsc34)nn2)CCN1 (stereo not drawn) [Compound 182] | < 500 nM | 500 to 5000 nM | 1000 to 10000 nM | 1000 to 10000 nM | 1000 to 10000 nM | 100 to 1000 nM | 1000 to 10000 nM
11 | c1nc2c(-c3cn[nH]c3)ccc(-c3ccc(OC4CCNCC4)nn3)c2s1 [Compound 183] | > 5000 nM | > 5000 nM | 100 to 1000 nM | 100 to 1000 nM | 100 to 1000 nM | 100 to 1000 nM | 100 to 1000 nM
12 | c1nc2c(-c3cn[nH]c3)ccc(-c3ccc(O[C@@H]4C[C@H]5CC[C@@H](C4)N5)nn3)c2s1 [Compound 184] | < 500 nM | 500 to 5000 nM | 100 to 1000 nM | < 100 nM | 100 to 1000 nM | < 100 nM | 100 to 1000 nM
13 | c1nc2c(-c3cn[nH]c3)ccc(-c3ccc(N4CCNCC4)nn3)c2s1 [Compound 185] | > 5000 nM | > 5000 nM | > 10000 nM | 1000 to 10000 nM | > 10000 nM | 100 to 1000 nM | > 10000 nM
14 | CC1(C)CC(Nc2ccc(-c3ccc(-c4cn[nH]c4)c4ncsc34)nn2)CC(C)(C)N1 [Compound 186] | < 500 nM | < 500 nM | < 100 nM | < 100 nM | < 100 nM | < 100 nM | 100 to 1000 nM
15 | CN(c1ccc(-c2ccc(-c3cnn(C)c(=O)c3)c3scnc23)nn1)C1CC(C)(C)NC(C)(C)C1 [Compound 211] | – | – | – | – | 100 to 1000 nM | 100 to 1000 nM | 100 to 1000 nM
16 | CN(c1ccc(-c2ccc(-c3cnn(C)c3)c3cn[nH]c23)nn1)C1CCNCC1 [Compound 242, N-methyl-6-[4-(1-methylpyrazol-4-yl)-1H-indazol-7-yl]-N-(piperidin-4-yl)pyridazin-3-amine;trifluoroacetic acid] | – | – | > 10000 nM | > 10000 nM | – | – | –
17 | CN(c1ccc(-c2ccc(-c3cnn(C)c3)c3cn[nH]c23)nn1)C1CC(C)(C)NC(C)(C)C1 [Compound 243, N-methyl-6-[4-(1-methylpyrazol-4-yl)-1H-indazol-7-yl]-N-(2,2,6,6-tetramethylpiperidin-4-yl)pyridazin-3-amine; trifluoroacetic acid] | – | – | 1000 to 10000 nM | 1000 to 10000 nM | – | – | –
18 | c1n[nH]cc1-c1ccc(-c2ccc(N3CCCC4(CNC4)C3)nn2)c2[nH]ncc12 [Compound 251] | – | – | > 10000 nM | > 10000 nM | – | – | –

Row | Compound | AC50 (HTT [1]; [3]) | AC50 (HTT [1]; [4]) | AC50 (HTT [1]; [5]) | AC50 (HTT [1]; [6]) | IC50 (HTT [2]) | IC50 (SMN2) | IC50 (Target C)
19 | c1n[nH]cc1-c1ccc(-c2ccc(N3CCC4(CCCNC4)C3)nn2)c2[nH]ncc12 (stereo not drawn) [Compound 252] | – | – | > 10000 nM | > 10000 nM | – | – | –
20 | c1n[nH]cc1-c1ccc(-c2ccc(N3CCCC4(CCNC4)C3)nn2)c2[nH]ncc12 (stereo not drawn) [Compound 253] | – | – | > 10000 nM | > 10000 nM | – | – | –
21 | c1n[nH]cc1-c1ccc(-c2ccc(N3C[C@H]4CNC[C@H]4C3)nn2)c2[nH]ncc12 [Compound 254] | – | – | > 10000 nM | > 10000 nM | – | – | –
22 | CN1C[C@@H]2CN(c3ccc(-c4ccc(-c5cn[nH]c5)c5cn[nH]c45)nn3)C[C@@H]2C1 [Compound 255] | – | – | > 10000 nM | > 10000 nM | – | – | –
23 | c1n[nH]cc1-c1ccc(-c2ccc(NC3CCNCC3)nn2)c2[nH]ncc12 [Compound 263, N-(piperidin-4-yl)-6-[4-(1H-pyrazol-4-yl)-1H-indazol-7-yl]pyridazin-3-amine hydrogen chloride] | – | – | > 10000 nM | > 10000 nM | – | – | –
24 | CN(c1ccc(-c2ccc(-n3cccn3)c3cn[nH]c23)nn1)C1CCNCC1 [Compound 264] | – | – | > 10000 nM | > 10000 nM | – | – | –
25 | c1nc2c(-c3cn[nH]c3)ccc(-c3ccc(N4CCC5(CCN5)C4)nn3)c2s1 (stereo not drawn) [Compound 265, 7-(6-{1,6-diazaspiro[3.4]octan-6-yl}pyridazin-3-yl)-4-(1H-pyrazol-4-yl)-1,3-benzothiazole] | – | – | > 10000 nM | > 10000 nM | – | – | –
26 | c1nc2c(-c3cn[nH]c3)ccc(-c3ccc(N4CCC45CCNCC5)nn3)c2s1 [Compound 266] | – | – | 1000 to 10000 nM | > 10000 nM | – | – | –
27 | [2H]C([2H])([2H])N(c1ccc(-c2ccc(-c3cn[nH]c3)c3cn[nH]c23)nn1)C1CCNCC1 [Compound 267] | – | – | > 10000 nM | > 10000 nM | – | – | –
28 | CN(c1ccc(-c2ccc(-c3cn[nH]c3)c3cn[nH]c23)nn1)C1CCNCC1 [Compound 273] | – | – | > 10000 nM | > 10000 nM | – | – | –
29 | CCN(c1ccc(-c2ccc(-c3cn[nH]c3)c3cn[nH]c23)nn1)C1CCNCC1 [Compound 274] | – | – | > 10000 nM | > 10000 nM | – | – | –
30 | CC1(C)CC(Nc2ccc(-c3ccc(-c4cn[nH]c4)c4cn[nH]c34)nn2)CC(C)(C)N1 [Compound 275] | – | – | 100 to 1000 nM | 1000 to 10000 nM | – | – | –
31 | c1nc2c(-c3cn[nH]c3)ccc(-c3ccc(N4CCC45CCCNC5)nn3)c2s1 (stereo not drawn) [Compound 276] | – | – | 1000 to 10000 nM | 1000 to 10000 nM | – | – | –
32 | c1nc2c(-c3cn[nH]c3)ccc(-c3ccc(N4CCC45CCNC5)nn3)c2s1 (stereo not drawn) [Compound 277] | – | – | > 10000 nM | > 10000 nM | – | – | –
33 | c1cc(-c2ccc(N3CCCN3)c3cn[nH]c23)nnc1N[C@@H]1C[C@H]2CC[C@@H](C1)N2 [Compound 278] | – | – | < 100 nM | 100 to 1000 nM | – | – | –
34 | CN(c1ccc(-c2ccc(-c3ccn(C)c(=O)c3)c3ncsc23)nn1)C1CC(C)(C)NC(C)(C)C1 [Compound 279] | – | – | 1000 to 10000 nM | 1000 to 10000 nM | – | – | –
35 | COc1cc(-c2ccc(-c3ccc(N(C)C4CC(C)(C)NC(C)(C)C4)nn3)c3scnc23)ccn1 [Compound 280] | – | – | 100 to 1000 nM | 100 to 1000 nM | – | – | –
36 | CN(c1ccc(-c2ccc(-c3ccc(=O)n(C)c3)c3ncsc23)nn1)C1CC(C)(C)NC(C)(C)C1 [Compound 281] | – | – | > 10000 nM | > 10000 nM | – | – | –
